Each structure is given as a SMILES string.

This test has as its target human transferrin (Tf; hTf) (Homo sapiens, UniProt P02787). As to the kind of experiment: isothermal titration calorimetry. The class given is binding.

human transferrin (Tf; hTf), sequence (P02787 20-698): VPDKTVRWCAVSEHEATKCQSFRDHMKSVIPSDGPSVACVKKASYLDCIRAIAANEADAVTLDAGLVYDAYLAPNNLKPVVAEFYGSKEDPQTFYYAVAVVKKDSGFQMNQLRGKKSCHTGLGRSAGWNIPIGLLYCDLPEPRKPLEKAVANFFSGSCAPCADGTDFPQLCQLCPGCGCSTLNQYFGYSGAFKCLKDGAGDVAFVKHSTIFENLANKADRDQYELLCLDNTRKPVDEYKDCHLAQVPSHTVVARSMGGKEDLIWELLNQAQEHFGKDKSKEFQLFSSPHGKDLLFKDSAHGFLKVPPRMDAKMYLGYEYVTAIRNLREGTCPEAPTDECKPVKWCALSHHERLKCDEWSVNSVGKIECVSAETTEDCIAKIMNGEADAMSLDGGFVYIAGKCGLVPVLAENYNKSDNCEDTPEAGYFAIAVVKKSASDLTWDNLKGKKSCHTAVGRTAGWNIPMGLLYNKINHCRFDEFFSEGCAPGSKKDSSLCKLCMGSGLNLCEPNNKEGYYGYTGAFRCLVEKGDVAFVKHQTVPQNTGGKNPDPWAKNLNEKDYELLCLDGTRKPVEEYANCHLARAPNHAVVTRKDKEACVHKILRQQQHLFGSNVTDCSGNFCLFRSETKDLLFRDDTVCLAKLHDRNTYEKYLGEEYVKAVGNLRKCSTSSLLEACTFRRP

As for `C/C=C1\[C@H]2C=C(C)C[C@]1(N)c1ccc(=O)[nH]c1C2` [Huperzine A], binding was put at a Kd of 1.45 µM.

The values are drawn from article PMC9631745 (ACS Omega, 2022).
